The source of these data is article PMC11643494, “Structure–Activity Relationship Studies in a Series of 2-Aryloxy-N-(pyrimidin-5-yl)acetamide Inhibitors of SLACK Potassium Channels” (Molecules, 2024).

Format in all cases: cell-based
One experiment has as its target T1, TASK-1 (Homo sapiens, UniProt O14649).
T1 construct: expressed in transfected cells; host or cells: HEK293
Put plainly: Tl+-flux assay in HEK-293 cells, TASK-1. The conditions noted are these: HEK293; 10 µM test compound; relative to control bepridil; read-out: Percent Inhibition ± SEM, TASK-1. The source says: (§1) Having executed our plan to prepare analogs across the identified regions of the chemotype (Figure 2), we identified two analogs for further profiling and evaluation. […] Desiring to add a second compound with some measure of structural differences, we also chose another submicromolar SLACK inhibitor 66 (VU0936154). Whereas 40 contains an ether linker and a halogenated phenyl group in the eastern region, […] contains an N-methyl linker and a phenyl group with a more polar cyano substituent. We first screened these analogs at 10 µM versus our in-house panel of ion channel targets using Tl^+-flux assays in HEK-293 cells expressing the human target of interest. […] Included in this set are Slo family members SLICK and two isoforms of Maxi-K, as well as several different K^+, Na^+, and Ca^2+ channels (Table 6). […] Of note was the excellent selectivity versus the broader panel of targets for both compounds, including versus the hERG channel.
(§2) Stably transfected monoclonal HEK293 cell lines expressing SLICK, Maxi-K α1/β3, Maxi-K α1/β4, CaV3.2, GIRK 1/2, KV2.1, KV7.2, NaV1.7, and TASK-1 were generated as previously described. […]
(§3) The Tl^+ flux assays were conducted as previously described, with modifications optimized for individual cell lines as described below. […] Cell plates were then loaded onto a Panoptic kinetic imaging plate reader (WaveFront Biosciences, Franklin, TN, USA). […]

The target of another experiment is T2, NaV1.7 (Homo sapiens, UniProt Q15858).
T2 construct: expressed in transfected cells; host or cells: HEK293
Put plainly: Tl+-flux assay in HEK-293 cells, NaV1.7. Particulars: HEK293; 10 µM test compound; relative to control TC-N 1752; read-out: Percent Inhibition ± SEM, NaV1.7.
Description: as §1, §2, §3

For a further experiment, the target named is T3, KV2.1 (Homo sapiens, UniProt Q14721).
T3 construct: expressed in transfected cells; host or cells: HEK293
Briefly: Tl+-flux assay in HEK-293 cells, KV2.1. Particulars: HEK293; 10 µM test compound; relative to control guangxitoxin 1E; read-out: Percent Inhibition ± SEM, KV2.1.
Description: as §1, §2, §3

Structures are written as SMILES.

T1 sequence (O14649 whole entry): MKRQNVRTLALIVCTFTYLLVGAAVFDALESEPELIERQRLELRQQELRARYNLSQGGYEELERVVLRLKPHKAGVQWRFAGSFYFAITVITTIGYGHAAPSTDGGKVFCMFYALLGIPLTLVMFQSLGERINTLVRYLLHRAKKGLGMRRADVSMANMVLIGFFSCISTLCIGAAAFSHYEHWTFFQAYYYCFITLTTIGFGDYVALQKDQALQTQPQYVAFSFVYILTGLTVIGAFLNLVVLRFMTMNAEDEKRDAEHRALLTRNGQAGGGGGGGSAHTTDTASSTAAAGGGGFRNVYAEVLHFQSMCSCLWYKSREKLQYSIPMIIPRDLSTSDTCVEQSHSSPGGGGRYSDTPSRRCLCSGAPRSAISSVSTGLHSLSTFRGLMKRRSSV
T3 sequence (Q14721 whole entry): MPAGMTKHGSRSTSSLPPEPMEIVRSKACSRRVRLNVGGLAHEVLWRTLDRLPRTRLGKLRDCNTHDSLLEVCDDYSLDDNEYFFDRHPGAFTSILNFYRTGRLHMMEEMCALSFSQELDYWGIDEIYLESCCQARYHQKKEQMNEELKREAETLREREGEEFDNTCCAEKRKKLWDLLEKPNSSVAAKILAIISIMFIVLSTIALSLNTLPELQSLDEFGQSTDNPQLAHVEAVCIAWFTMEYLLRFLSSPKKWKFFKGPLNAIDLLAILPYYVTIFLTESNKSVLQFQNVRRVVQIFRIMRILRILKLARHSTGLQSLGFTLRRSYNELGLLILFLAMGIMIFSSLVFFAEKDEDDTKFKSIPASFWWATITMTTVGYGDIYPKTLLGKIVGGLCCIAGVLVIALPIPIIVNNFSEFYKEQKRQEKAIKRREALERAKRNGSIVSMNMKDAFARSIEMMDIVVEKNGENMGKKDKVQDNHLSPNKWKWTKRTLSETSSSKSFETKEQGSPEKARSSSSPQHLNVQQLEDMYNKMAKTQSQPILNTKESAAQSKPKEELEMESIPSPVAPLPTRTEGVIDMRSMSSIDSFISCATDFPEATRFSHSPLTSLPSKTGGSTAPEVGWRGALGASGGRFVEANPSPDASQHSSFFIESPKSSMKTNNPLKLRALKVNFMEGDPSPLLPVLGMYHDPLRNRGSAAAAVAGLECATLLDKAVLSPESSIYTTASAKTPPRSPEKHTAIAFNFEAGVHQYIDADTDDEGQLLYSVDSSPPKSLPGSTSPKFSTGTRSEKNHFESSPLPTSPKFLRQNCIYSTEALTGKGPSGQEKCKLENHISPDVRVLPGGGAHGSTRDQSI
T2 sequence (Q15858 whole entry): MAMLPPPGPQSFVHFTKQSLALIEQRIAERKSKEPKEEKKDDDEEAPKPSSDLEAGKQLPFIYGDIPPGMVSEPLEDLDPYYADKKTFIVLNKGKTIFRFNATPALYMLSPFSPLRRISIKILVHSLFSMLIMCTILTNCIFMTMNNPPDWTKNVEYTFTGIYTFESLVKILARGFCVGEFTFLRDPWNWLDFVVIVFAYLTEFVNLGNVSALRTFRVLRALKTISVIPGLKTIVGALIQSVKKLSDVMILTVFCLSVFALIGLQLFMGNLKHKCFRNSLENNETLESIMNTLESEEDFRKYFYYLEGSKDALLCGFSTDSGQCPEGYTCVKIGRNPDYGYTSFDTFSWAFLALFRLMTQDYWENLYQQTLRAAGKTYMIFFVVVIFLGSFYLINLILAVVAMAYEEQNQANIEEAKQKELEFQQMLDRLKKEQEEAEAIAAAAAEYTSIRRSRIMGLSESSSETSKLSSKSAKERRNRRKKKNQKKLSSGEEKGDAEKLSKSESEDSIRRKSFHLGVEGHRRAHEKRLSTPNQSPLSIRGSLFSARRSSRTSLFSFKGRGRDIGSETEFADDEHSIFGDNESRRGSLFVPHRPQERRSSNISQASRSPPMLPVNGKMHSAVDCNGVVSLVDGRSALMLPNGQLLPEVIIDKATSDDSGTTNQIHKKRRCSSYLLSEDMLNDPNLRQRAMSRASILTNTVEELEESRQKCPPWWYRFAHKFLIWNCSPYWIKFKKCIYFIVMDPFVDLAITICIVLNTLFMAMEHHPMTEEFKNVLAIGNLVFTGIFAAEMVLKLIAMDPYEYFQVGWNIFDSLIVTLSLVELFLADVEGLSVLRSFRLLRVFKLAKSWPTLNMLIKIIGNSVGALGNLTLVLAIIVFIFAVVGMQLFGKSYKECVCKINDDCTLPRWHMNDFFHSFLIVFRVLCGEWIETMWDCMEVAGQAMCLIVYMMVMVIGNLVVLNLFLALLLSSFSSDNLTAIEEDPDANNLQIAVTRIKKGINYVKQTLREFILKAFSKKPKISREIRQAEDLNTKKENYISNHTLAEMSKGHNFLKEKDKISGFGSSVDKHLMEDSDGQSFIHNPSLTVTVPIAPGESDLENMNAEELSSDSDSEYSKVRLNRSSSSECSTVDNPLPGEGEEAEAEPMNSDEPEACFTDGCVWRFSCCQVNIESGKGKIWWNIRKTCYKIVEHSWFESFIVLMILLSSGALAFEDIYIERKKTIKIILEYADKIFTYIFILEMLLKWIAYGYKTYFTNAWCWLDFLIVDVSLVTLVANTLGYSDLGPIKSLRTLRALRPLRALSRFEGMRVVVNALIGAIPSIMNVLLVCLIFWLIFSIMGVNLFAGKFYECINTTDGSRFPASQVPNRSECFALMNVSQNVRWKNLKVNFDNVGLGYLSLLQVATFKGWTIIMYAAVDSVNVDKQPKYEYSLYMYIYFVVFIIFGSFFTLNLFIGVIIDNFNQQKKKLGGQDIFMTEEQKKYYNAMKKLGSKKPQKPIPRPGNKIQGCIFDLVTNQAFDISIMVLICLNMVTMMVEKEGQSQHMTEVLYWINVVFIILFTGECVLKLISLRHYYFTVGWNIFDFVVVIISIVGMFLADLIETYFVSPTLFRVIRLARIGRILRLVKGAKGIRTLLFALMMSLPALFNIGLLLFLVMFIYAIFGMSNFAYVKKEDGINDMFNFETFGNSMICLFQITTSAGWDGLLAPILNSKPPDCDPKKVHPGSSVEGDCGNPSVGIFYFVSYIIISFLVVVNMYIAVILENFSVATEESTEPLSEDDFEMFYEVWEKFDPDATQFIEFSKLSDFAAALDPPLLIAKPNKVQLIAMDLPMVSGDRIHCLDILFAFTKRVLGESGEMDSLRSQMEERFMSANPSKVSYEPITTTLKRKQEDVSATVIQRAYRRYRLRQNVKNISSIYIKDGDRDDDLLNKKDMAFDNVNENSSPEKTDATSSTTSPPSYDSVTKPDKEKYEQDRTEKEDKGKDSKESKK

For `CC(C)(Oc1ccc(Cl)cc1)C(=O)Nc1cnc(Oc2c(F)cccc2F)nc1` [Analog 40], the inhibition at 10 µM on TASK-1 is 24 ± 3.7%; on NaV1.7 it was 7.5 ± 1.7%; on KV2.1 it was 13 ± 5%.
With `CN(c1ccc(C#N)cc1)c1ncc(NC(=O)C(C)(C)Oc2ccc(Cl)cc2)cn1` [Analog 66], the inhibition at 10 µM at TASK-1 was 18 ± 2%; on NaV1.7, 17 ± 1.8%; at KV2.1, 10 ± 1.6%.
